Results on three compounds are retold here after patent publication US10898486B2, “Crystal form of orexin receptor antagonist compound, and preparation method and application thereof” (Shanghai Haiyan Pharmaceutical Technology Co., Ltd., priority 2015, dated 2021).

A short description of data set [1]: Solubility of crystal form II in different aqueous media (37° C., 24 hours, HPLC). The class given is physicochemical. The settings on record: for Appearance: 10 mg in 1 mL.
In another data set the target is T1, hOX1R (Homo sapiens, UniProt O43613).
T1 construct: expressed in transfected cells
T1 sequence (O43613 1-425): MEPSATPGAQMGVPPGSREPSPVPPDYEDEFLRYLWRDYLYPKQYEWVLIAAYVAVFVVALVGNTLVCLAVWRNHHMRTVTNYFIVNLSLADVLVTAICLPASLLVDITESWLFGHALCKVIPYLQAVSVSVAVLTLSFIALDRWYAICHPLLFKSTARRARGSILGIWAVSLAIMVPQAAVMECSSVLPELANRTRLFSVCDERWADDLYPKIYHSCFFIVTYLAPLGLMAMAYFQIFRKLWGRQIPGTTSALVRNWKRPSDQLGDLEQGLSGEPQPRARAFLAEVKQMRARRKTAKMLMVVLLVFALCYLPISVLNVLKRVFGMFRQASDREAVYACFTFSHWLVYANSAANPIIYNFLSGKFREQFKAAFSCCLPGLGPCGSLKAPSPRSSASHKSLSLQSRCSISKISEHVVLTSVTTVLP
Briefly: In vitro test of OX1R: calcium signal change in HEK293-OX1 cells detected with FLIPR. The class given is cell-based.

In another data set the target is T2, hOX2R (Homo sapiens, UniProt O43614).
T2 construct: expressed in transfected cells
T2 sequence (O43614 1-444): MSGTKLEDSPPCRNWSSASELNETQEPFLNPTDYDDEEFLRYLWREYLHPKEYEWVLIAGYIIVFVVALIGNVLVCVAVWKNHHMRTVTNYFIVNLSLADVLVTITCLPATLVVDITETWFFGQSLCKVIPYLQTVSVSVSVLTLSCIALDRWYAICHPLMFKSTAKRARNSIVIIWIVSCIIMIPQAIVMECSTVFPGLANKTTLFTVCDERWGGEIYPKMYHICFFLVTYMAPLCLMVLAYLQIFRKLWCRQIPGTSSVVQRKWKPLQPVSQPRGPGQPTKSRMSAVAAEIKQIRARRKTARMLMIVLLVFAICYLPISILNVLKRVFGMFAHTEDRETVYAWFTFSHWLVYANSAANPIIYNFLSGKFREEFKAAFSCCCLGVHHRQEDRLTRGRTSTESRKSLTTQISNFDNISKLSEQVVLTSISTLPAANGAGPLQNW
Briefly: In vitro test of OX2R: calcium signal change in HEK293-OX2 cells detected with FLIPR. It is filed as cell-based.

The nature of data set [2]: Solubility of crystal form I in different solvents (visual, room temperature). The class given is physicochemical. As to the method: Solubility Study of crystal form I of compound 5-3:1-1.5 mg of crystal form I of compound 5-3 was added to a flask at room temperature, a single organic solvent or a mixed solvent was added in small quantities and many times until the visual solution was clear or no solid particles were present, determined the solubility of crystal form I in different solvents, the results were shown in Table 2.

Where [3] appears, read: Simulated fasting intestinal fluid.
The mark [4] stands for this setting: Simulated postprandial intestinal fluid.

In general, solubility refers to the concentration that dissolves in the medium under given conditions. As usually defined, the IC50 is the concentration that gives 50% inhibition.

SMILES strings stand for the structures. ≈ marks a conversion by molar mass, not a printed value. Where only a bound is given, the exact number is not on record here.

Turning to `Cc1ccc(-c2ncccn2)c(C(=O)N2C3CCC2[C@@H](COc2ccc(F)cn2)CC3)c1` (stereo partly drawn) [crystal form II], the “Crystal form of residual solid” value in data set [1] (0.1N HCl), in data set [1] (Simulate gastric fluid), in data set [1] (setting [3]), in data set [1] (setting [4]) and in data set [1] (water) was “crystal form II” throughout. Also, the “Final pH” value is 0.80 in data set [1] (0.1N HCl); 1.88 in data set [1] (Simulate gastric fluid); 6.65 in data set [1] (setting [3]); 5.04 in data set [1] (setting [4]); 7.95 in data set [1] (water). The “Solubility (descriptive)” value in data set [1] (0.1N HCl), in data set [1] (Simulate gastric fluid), in data set [1] (setting [3]), in data set [1] (setting [4]) and in data set [1] (water) was “Slightly soluble” in each case. In addition, the Appearance entry in data set [1] (0.1N HCl), in data set [1] (Simulate gastric fluid), in data set [1] (setting [3]), in data set [1] (setting [4]) and in data set [1] (water) was “turbid” in each case. For the same compound, the solubility at 24 h in data set [1] (pH 0.8, simulated gastric fluid, thermodynamic from solid, 0.1N HCl) was 0.42 mg/mL (≈ 0.971 mM); in data set [1] (pH 1.88, simulated gastric fluid, thermodynamic from solid, Simulate gastric fluid), 0.27 mg/mL (≈ 0.624 mM); in data set [1] (pH 5.04, fessif, thermodynamic from solid, Simulated postprandial intestinal fluid), 0.29 mg/mL (≈ 0.671 mM); in data set [1] (pH 6.65, fassif, thermodynamic from solid, Simulated fasting intestinal fluid) it was 0.18 mg/mL (≈ 0.416 mM); in data set [1] (pH 7.95, thermodynamic from solid, water) it was 0.14 mg/mL (≈ 0.324 mM).
In the case of `Cc1ccc(-c2ncccn2)c(C(=O)N2C3CCC2[C@@H](COc2ccc(F)cn2)CC3)c1` (stereo partly drawn) [Compound 5-3], the IC50 at hOX1R and at hOX2R was less than 50 nM each time.
Regarding `Cc1ccc(-c2ncccn2)c(C(=O)N2C3CCC2[C@@H](COc2ccc(F)cn2)CC3)c1` (stereo partly drawn) [crystal form I], the solubility is greater than 57 mg/mL in data set [2] (organic solvent or mixture, thermodynamic from solid, 1,4-dioxane); 20 to 50 mg/mL (≈ 46.2 to 116 mM) in data set [2] (organic solvent or mixture, thermodynamic from solid, ACN); greater than 52 mg/mL in data set [2] (organic solvent or mixture, thermodynamic from solid, Acetone); 19 to 48 mg/mL (≈ 43.9 to 111 mM) in data set [2] (organic solvent or mixture, thermodynamic from solid, EtOAc); 22 to 55 mg/mL (≈ 50.9 to 127 mM) in data set [2] (organic solvent or mixture, thermodynamic from solid, EtOH); 10 to 20 mg/mL (≈ 23.1 to 46.2 mM) in data set [2] (organic solvent or mixture, thermodynamic from solid, IPA). Further, the solubility in data set [2] (organic solvent or mixture, thermodynamic from solid, MEK) is greater than 54 mg/mL; in data set [2] (organic solvent or mixture, thermodynamic from solid, MIBK), 24 to 60 mg/mL (≈ 55.5 to 139 mM); in data set [2] (organic solvent or mixture, thermodynamic from solid, MTBE), less than 1 mg/mL; in data set [2] (organic solvent or mixture, thermodynamic from solid, MeOH), greater than 53 mg/mL; in data set [2] (organic solvent or mixture, thermodynamic from solid, MeOH—H2O (3:1)) it was 18 to 46 mg/mL (≈ 41.6 to 106 mM); in data set [2] (organic solvent or mixture, thermodynamic from solid, THF), greater than 53 mg/mL. Moreover, the solubility was greater than 54 mg/mL in data set [2] (organic solvent or mixture, thermodynamic from solid, Toluene); 22 to 55 mg/mL (≈ 50.9 to 127 mM) in data set [2] (organic solvent or mixture, thermodynamic from solid, n-butanol); less than 1 mg/mL in data set [2] (thermodynamic from solid, water).
